{"source": "patent US20080113900A1", "about": "“Pharmaceutical compositions and therapeutic applications for the use of a synthetic vitamin B12 derivative, glutathionylcobalamin” (priority 2006, published 2008)", "key": {"SK-HEP-1 cells": {"system": "SK-HEP-1 cells", "assay": "Protection of endothelial cells from homocysteine-induced cell death (MTS assay)", "assay_type": "cell-based, human", "settings": "for Mean (FIG. 14a, protection of SK-HEP-1 cells from Hcy in the presence of folate): folate 25 μM present, [GSCbl] = 15 μM, [CNCbl] = 15 μM, [MeCbl] = 12.5 μM, [HOCbl] = 17.5 μM, [GSH] = 100 μM; for Absorbance at 490 nm: single replicates Y1-Y6", "experimental": "The effect of a constant concentration of NACCbl and GSCbl to protect cells against variable concentrations of homocysteine was assessed. […] Cell viability was determined by MTS® assay. Data shown in FIG. 4 are representative of means ±SE of 6 independent samples. FIG. 4 illustrates that NACCbl (▪) and GSCbl (▴) protect endothelial cells from the effect of homocysteine. […] Cell viability was determined by MTS® assay. […] There was a decrease in protection as homocysteine concentration increased, but there was still ˜60% survival at 50 μM homocysteine.\nThe data was normalized (log 2 and log 10) as shown in FIGS. 16 and 17 and Tables 16 and 17, respectively, below."}, "[1]": {"assay": "Decomposition in PBS at 37° C. monitored by UV/Vis spectrophotometry", "assay_type": "physicochemical", "experimental": "The decomposition of GSCbl, NACCbl, and HcyCbl in PBS at 37° C. was monitored by UV/Vis spectrophotometry."}, "Hsp70": {"system": "Hsp70", "assay": "Hsp70 gene expression (RT-PCR, densitometry)", "settings": "SK-HEP-1; Quercitin 15 μM", "procedure": "(§1) Cells were plated into 6-, 12-, or 24-well cell culture clusters, at 2×10^3, 2×10^5, or 1×10^5 cells per well and incubated until 90% confluent. Treatments were applied as above.\n(§2) Following incubation, cells were subjected to mRNA extraction followed by cDNA synthesis for each sample under test. Polymerase chain reaction cDNA templates were prepared for simplex PCR protocol. PCR products were then visualized using a UV Transilluminator and images captured using a Kodak ID gel imaging system. Densitometry and statistical analysis was then performed on each gene expression band image using PSP® v 10.0 running under Windows XP®.\n(§3) mRNA extraction was performed using the Quickprep micro mRNA Purification Kit. Following incubation of cells post-treatment, the media was removed from the cells, adherent cells were re-suspended in 0.4 ml extraction buffer and 0.8 ml elution buffer at 65° C. was added.\nA reaction mixture was prepared in individual microcentrifuge tubes containing 2 cDNA synthesis beads, 32 μl of the mRNA solution and 1 μl of pd(N)6. This mixture was incubated at 37° C. in a water bath for 60 minutes. After incubation, 27 μl of RNase-free DEPC treated water was added to each tube to make a total volume 60 μl. cDNA samples were prepared in duplicate. Sample 1 was used immediately in RT-PCR protocol.\nMicrocentrifuge tubes from puReTaq™Ready-To-Go™ PCR Beads containing one PCR bead were labeled for each sample required. Added to the PCR bead were 17 μl of RNase-free DEPC treated water, 1 μl sense primer, 1 μl anti-sense primer and 5 μl of the cDNA solution. RT-PCR conditions were as follows: Hsp70 and β-actin, pre-treatment step, 94° C. for 1 minute, followed by denaturing at 92° C. for 1 minute, annealing at 60° C. for 1 minute and extension at 72° C. for 1 minute. Total cycles, 30, post-treatment was then carried out at 72° C. for 10 minutes. For Hsp32, pre-treatment step, 95° C. for 2 minutes, followed by denaturing at 94° C. for 30 seconds, annealing at 58° C. for 1 minute and extension at 72° C. for 1 minute. […]"}, "Hsp32": {"system": "Hsp32", "assay": "Hsp32 gene expression (RT-PCR, densitometry)", "assay_type": "cell-based, human", "settings": "SK-HEP-1; Sn (IX) protoporphyrin 25 μM; Quercitin 15 μM", "procedure": "as §1, §2, §3\nA reaction mixture was prepared in individual microcentrifuge tubes containing 2 cDNA synthesis beads, 32 μl of the mRNA solution and 1 μl of pd(N)6. This mixture was incubated at 37° C. in a water bath for 60 minutes. After incubation, 27 μl of RNase-free DEPC treated water was added to each tube to make a total volume 60 μl. cDNA samples were prepared in duplicate. Sample 1 was used immediately in RT-PCR protocol. Sample 2 was prepared for qPCR protocol by the addition of 150 μl of 95% ice-cold ethanol and stored at −20° C.\nMicrocentrifuge tubes from puReTaq™Ready-To-Go™ PCR Beads containing one PCR bead were labeled for each sample required. Added to the PCR bead were 17 μl of RNase-free DEPC treated water, 1 μl sense primer, 1 μl anti-sense primer and 5 μl of the cDNA solution. RT-PCR conditions were as follows: Hsp70 and β-actin, pre-treatment step, 94° C. for 1 minute, followed by denaturing at 92° C. for 1 minute, annealing at 60° C. for 1 minute and extension at 72° C. for 1 minute. Total cycles, 30, post-treatment was then carried out at 72° C. for 10 minutes. For Hsp32, pre-treatment step, 95° C. for 2 minutes, followed by denaturing at 94° C. for 30 seconds, annealing at 58° C. for 1 minute and extension at 72° C. for 1 minute. Total cycles 45, post treatment was then carried out at 72° C. for 10 minutes. Following RT-PCR, samples were stored at −20° C.\nGels were visualised on a UV Transilluminator. Photographs were stored using a Kodak Digital camera system fitted with a UV filter set connected to a PC. Images were then transferred to the Kodak ID gel imaging system. Densitometry was performed on each gene expression band using PSP™ v10 running under Windows XP®.\nExperiments were conducted using Hsp32 and Hsp 70 gene expression as the basis for study. […] The densitometric data are presented as means ±SEM of n=3 separate experiments. *p<0.05 or **p<0.01, treatment vs. control."}, "[2]": {"settings": "[Hcy] 30 μM, [NACCbl] = 12.5 μM, [NAC] = 45 μM"}, "[3]": {"settings": "Conc. Hcy 0.000, NACCbl 30 μM, NAC 75 μM, n = 6"}, "[4]": {"settings": "Conc. Hcy 1.780, NACCbl 30 μM, NAC 75 μM, n = 6"}, "[5]": {"settings": "Conc. Hcy 3.125, NACCbl 30 μM, NAC 75 μM, n = 6"}, "[6]": {"settings": "Conc. Hcy 6.250, NACCbl 30 μM, NAC 75 μM, n = 6"}, "[7]": {"settings": "Conc. Hcy 12.500, NACCbl 30 μM, NAC 75 μM, n = 6"}, "[8]": {"settings": "Conc. Hcy 25.000, NACCbl 30 μM, NAC 75 μM, n = 6"}, "[9]": {"settings": "Conc. Hcy 50.000, NACCbl 30 μM, NAC 75 μM, n = 6"}, "[10]": {"settings": "Conc. Hcy 100.000, NACCbl 30 μM, NAC 75 μM, n = 6"}, "[11]": {"settings": "Conc. Hcy 200.000, NACCbl 30 μM, NAC 75 μM, n = 6"}}, "note": "Where “and” joins values, the source holds several entries; their conditions need not be identical. Identical values can stand only once."}
{"smiles": "N[C@@H](CCC(=O)N[C@@H](CS)C(=O)NCC(=O)O)C(=O)O", "note": "[GSH, γ-L-Glutamyl-L-cysteinyl-glycine, reference compound]", "values": [{"measurement": "Mean (FIG. 14a, protection of SK-HEP-1 cells from Hcy in the presence of folate)", "setting": "SK-HEP-1 cells; [2]", "result": 1.409}]}
{"smiles": "C/C1=C2/[N-][C@H]([C@H](CC(N)=O)[C@@]2(C)CCC(=O)NC[C@@H](C)OP(=O)([O-])O[C@H]2[C@@H](O)[C@@H](n3cnc4cc(C)c(C)cc43)O[C@@H]2CO)[C@]2(C)N=C(/C(C)=C3N=C(/C=C4N=C1[C@@H](CCC(N)=O)C\\4(C)C)[C@@H](CCC(N)=O)[C@]\\3(C)CC(N)=O)[C@@H](CCC(N)=O)[C@]2(C)CC(N)=O.[Co+3].[OH-]", "note": "[HOCbl, Hydroxocobalamin, reference compound]", "values": [{"measurement": "Mean (FIG. 14a, protection of SK-HEP-1 cells from Hcy in the presence of folate)", "setting": "SK-HEP-1 cells; [2]", "result": 0.9498}]}
{"smiles": "CC1=C2N=C(C=C3N=C(C(C)=C4[N-]C(C(CC(N)=O)C4(C)CCC(=O)NCC(C)OP(=O)([O-])OC4C(CO)OC(n5cnc6cc(C)c(C)cc65)C4O)C4(C)N=C1C(CCC(N)=O)C4(C)CC(N)=O)C(CCC(N)=O)C3(C)C)C(CCC(N)=O)C2(C)CC(N)=O.NC(CC[S-])C(=O)O.[Co+3]", "note": "[HcyCbl, D,L-homocysteinyl-cobalamin]", "values": [{"measurement": "Kobs", "setting": "[1]", "result": 0.0018, "unit": "min⁻¹"}, {"measurement": "t1/2", "setting": "[1]", "result": 6.6, "unit": "h"}]}
{"smiles": "C/C1=C2/[N-][C@H]([C@H](CC(N)=O)[C@@]2(C)CCC(=O)NC[C@H](C)OP(=O)([O-])O[C@H]2[C@@H](O)[C@@H](n3cnc4cc(C)c(C)cc43)O[C@@H]2CO)[C@]2(C)N=C(/C(C)=C3N=C(/C=C4N=C1[C@@H](CCC(N)=O)C\\4(C)C)[C@@H](CCC(N)=O)[C@]\\3(C)CC(N)=O)[C@@H](CCC(N)=O)[C@]2(C)CC(N)=O.[CH3-].[Co+3]", "note": "[MeCbl, Methylcobalamin, reference compound]", "values": [{"measurement": "Mean (FIG. 14a, protection of SK-HEP-1 cells from Hcy in the presence of folate)", "setting": "SK-HEP-1 cells; [2]", "result": 1.322}]}
{"smiles": "CC(=O)N[C@@H](CS)C(=O)O", "note": "[NAC, N-Acetyl-L-Cysteine, reference compound]", "values": [{"measurement": "Normalized Data Log 2, Mean", "setting": "SK-HEP-1 cells; [3]", "result": 84.288}, {"measurement": "Normalized Data Log 10, Mean", "setting": "SK-HEP-1 cells; [3]", "result": 100.000}, {"measurement": "Normalized Data Log 2, Mean", "setting": "SK-HEP-1 cells; [4]", "result": 69.880}, {"measurement": "Normalized Data Log 10, Mean", "setting": "SK-HEP-1 cells; [4]", "result": 83.752}, {"measurement": "Normalized Data Log 2, Mean", "setting": "SK-HEP-1 cells; [5]", "result": 60.687}, {"measurement": "Normalized Data Log 10, Mean", "setting": "SK-HEP-1 cells; [5]", "result": 73.385}, {"measurement": "Normalized Data Log 2, Mean", "setting": "SK-HEP-1 cells; [6]", "result": 58.837}, {"measurement": "Normalized Data Log 10, Mean", "setting": "SK-HEP-1 cells; [6]", "result": 71.298}, {"measurement": "Normalized Data Log 2, Mean", "setting": "SK-HEP-1 cells; [7]", "result": 45.397}, {"measurement": "Normalized Data Log 10, Mean", "setting": "SK-HEP-1 cells; [7]", "result": 56.141}, {"measurement": "Normalized Data Log 2, Mean", "setting": "SK-HEP-1 cells; [8]", "result": 41.900}, {"measurement": "Normalized Data Log 10, Mean", "setting": "SK-HEP-1 cells; [8]", "result": 52.198}, {"measurement": "Normalized Data Log 2, Mean", "setting": "SK-HEP-1 cells; [9]", "result": 24.035}, {"measurement": "Normalized Data Log 10, Mean", "setting": "SK-HEP-1 cells; [9]", "result": 32.051}, {"measurement": "Normalized Data Log 2, Mean", "setting": "SK-HEP-1 cells; [10]", "result": 13.738}, {"measurement": "Normalized Data Log 10, Mean", "setting": "SK-HEP-1 cells; [10]", "result": 20.439}, {"measurement": "Normalized Data Log 2, Mean", "setting": "SK-HEP-1 cells; [11]", "result": 11.135}, {"measurement": "Normalized Data Log 10, Mean", "setting": "SK-HEP-1 cells; [11]", "result": 17.503}, {"measurement": "Absorbance at 490 nm", "setting": "SK-HEP-1 cells; Conc. of Hcy 0.000, NACCbl 30 μM, NAC 75 μM", "result": "2.592 and 2.476 and 2.437 and 2.678 and 2.336 and 2.447"}, {"measurement": "Absorbance at 490 nm", "setting": "SK-HEP-1 cells; Conc. of Hcy 1.780, NACCbl 30 μM, NAC 75 μM", "result": "2.225 and 1.903 and 1.947 and 2.310 and 2.187 and 2.206"}, {"measurement": "Absorbance at 490 nm", "setting": "SK-HEP-1 cells; Conc. of Hcy 3.725, NAC 75 μM", "result": "1.890 and 2.003 and 1.784 and 1.946 and 1.958 and 1.801"}, {"measurement": "Absorbance at 490 nm", "setting": "SK-HEP-1 cells; Conc. of Hcy 6.250, NACCbl 30 μM, NAC 75 μM", "result": "1.678 and 1.789 and 1.897 and 1.899 and 1.933 and 1.905"}, {"measurement": "Absorbance at 490 nm", "setting": "SK-HEP-1 cells; Conc. of Hcy 12.500, NACCbl 30 μM, NAC 75 μM", "result": "1.675 and 1.232 and 1.339 and 1.590 and 1.602 and 1.622"}, {"measurement": "Absorbance at 490 nm", "setting": "SK-HEP-1 cells; Conc. of Hcy 25.000, NACCbl 30 μM, NAC 75 μM", "result": "1.345 and 1.501 and 1.632 and 1.378 and 1.226 and 1.447"}, {"measurement": "Absorbance at 490 nm", "setting": "SK-HEP-1 cells; Conc. of Hcy 50.000, NACCbl 30 μM, NAC 75 μM", "result": "0.890 and 0.821 and 1.034 and 1.227 and 0.799 and 1.045"}, {"measurement": "Absorbance at 490 nm", "setting": "SK-HEP-1 cells; Conc. of Hcy 100.000, NACCbl 30 μM, NAC 75 μM", "result": "0.789 and 0.842 and 0.743 and 0.589 and 0.490 and 0.799"}, {"measurement": "Absorbance at 490 nm", "setting": "SK-HEP-1 cells; Conc. of Hcy 200.000, NACCbl 30 μM, NAC 75 μM", "result": "0.567 and 0.668 and 0.623 and 0.490 and 0.721 and 0.788"}, {"measurement": "Absorbance at 490 nm, Mean", "setting": "SK-HEP-1 cells; SK-HEP-1, NACCbl 30 μM, NAC 75 μM, Hcy conc. 200.000, n = 6, label Hcy = Hcy alone", "result": 0.643}, {"measurement": "Mean (FIG. 14, protection of SK-HEP-1 cells from Hcy)", "setting": "SK-HEP-1 cells; [Hcy] 30 μM, [NAC] = 45 μM, [NACCbl] = 12.5 μM, [Folate] = 25 μM where named in the label, label Hcy/HCy = Hcy alone", "result": 1.296}, {"measurement": "Mean (FIG. 14a, protection of SK-HEP-1 cells from Hcy in the presence of folate)", "setting": "SK-HEP-1 cells; [2]", "result": 1.438}, {"measurement": "Absorbance at 490 nm, Mean", "setting": "SK-HEP-1 cells; as E80, Hcy conc. 0.000", "result": 2.494}, {"measurement": "Absorbance at 490 nm, Mean", "setting": "SK-HEP-1 cells; as E80, Hcy conc. 1.780", "result": 2.130}, {"measurement": "Absorbance at 490 nm, Mean", "setting": "SK-HEP-1 cells; as E80, Hcy conc. 3.125", "result": 1.897}, {"measurement": "Absorbance at 490 nm, Mean", "setting": "SK-HEP-1 cells; as E80, Hcy conc. 6.250", "result": 1.850}, {"measurement": "Absorbance at 490 nm, Mean", "setting": "SK-HEP-1 cells; as E80, Hcy conc. 12.500", "result": 1.510}, {"measurement": "Absorbance at 490 nm, Mean", "setting": "SK-HEP-1 cells; as E80, Hcy conc. 25.000", "result": 1.421}, {"measurement": "Absorbance at 490 nm, Mean", "setting": "SK-HEP-1 cells; as E80, Hcy conc. 50.000", "result": 0.969}, {"measurement": "Absorbance at 490 nm, Mean", "setting": "SK-HEP-1 cells; as E80, Hcy conc. 100.000", "result": 0.709}]}
{"smiles": "O.O.O=c1c(O)c(-c2ccc(O)c(O)c2)oc2cc(O)cc(O)c12", "note": "[Quercitin, 2-(3,4-Dihydroxyphenyl)-3,5,7-trihydroxy-4H-1-benzopyran-4-one dihydrate]", "values": [{"measurement": "Hsp70 gene expression", "setting": "Hsp70", "result": "inhibits"}, {"measurement": "Hsp32 gene expression", "setting": "Hsp32", "result": "does not inhibit"}]}
{"smiles": "C=CC1=C(C)c2cc3[n-]c(cc4[n-]c(cc5nc(cc1n2)C(C)=C5C=C)c(C)c4CCC(=O)O)c(CCC(=O)O)c3C.[Cl-].[Cl-].[Sn+4]", "note": "[Sn(IX) protoporphyrin, 8,13-Bis(vinyl)-3,7,12,17-tetramethyl-21H, 23H-porphine-2,18dipropionic acid tin(IV) dichloride]", "values": [{"measurement": "Hsp32 gene expression", "setting": "Hsp32", "result": "inhibited"}]}
